Laboratory results published in PMC11434796, “An Innovative Bio-Vehicle for Resveratrol and Tocopherol Based on Quinoa 11S Globulin—Nanocomplex Design and Characterization” (Pharmaceutics, 2024).

Target: T1, quinoa 11S globulin (11S; chenopodin)
T1 construct: gene 11S globulin A; native, from defatted quinoa seed flour (seed origin Peru); alkaline extraction, pH 4.5 precipitation, size-exclusion FPLC; acidic (30-35 kDa) and basic (17-20 kDa) subunits disulfide-linked, about 55 kDa; isoform mixture not resolved; docking used amaranth 3qac as homologue
Experiment: isothermal titration calorimetry
Format: binding, Chenopodium quinoa
Settings: distilled water pH 9, 25 °C, n 0.91
Description: isothermal titration calorimetry on quinoa 11S globulin (11S; chenopodin)

Kd (protein 36.4 µM): 48.2 ± 1 µM
Ka (M^-1) (same titration as the Kd): (2.1 ± 0.3) × 10^4
Structure (SMILES): Oc1ccc(/C=C/c2cc(O)cc(O)c2)cc1 [RSV, 3,5,4′-trihydroxystilbene]
